Publication PMC9467586, “Development of novel 9-O-substituted-13-octylberberine derivatives as potential anti-hepatocellular carcinoma agents” (Journal of Enzyme Inhibition and Medicinal Chemistry, 2022)

Experiments:
[1] = system: Sk-Hep-1 cells; experiment: In vitro antiproliferative MTT assay, Sk-Hep-1 cells; assay type: cell-based, human; conditions: Homo sapiens, SK-HEP1, 72 h, mean ± SD (n = 3)
Procedure: (§1) HepG2, Sk-Hep-1, Huh-7, Hep3B and L-02 cells were purchased from Nanjing Key Gen Biotech Co. Ltd. (Nanjing, China). The cytotoxicity of test compounds was determined using an MTT assay. Briefly, the cell lines were incubated at 37 °C in a humidified 5% CO2 incubator for 24 h in 96-microwell plates. After medium removal, 100 μL of culture medium with 0.1% DMSO containing test compounds at different concentrations was added to each well and incubated at 37 °C for another 72 h. The MTT (5 mg/mL in PBS) was added and incubated for another 4 h, the optical density was detected with a microplate reader at 490 nm. The IC50 values were calculated according to the dose-dependent curves. All the experiments were repeated in at least three independent experiments.

[2] = system: Huh-7 cells; experiment: In vitro antiproliferative MTT assay, Huh-7 cells; assay type: cell-based, human; conditions: Homo sapiens, 72 h, mean ± SD (n = 3)
Procedure: as §1

[3] = system: normal hepatocytes L-02; experiment: MTT cytotoxicity assay, normal hepatocytes L-02; assay type: cell-based; conditions: Hepatocyte; normal hepatocytes L-02, MTT, 72 h, mean ± SD (n = 3)
Procedure: as §1

[4] = system: HepG2 cells; experiment: Cell cycle analysis by PI staining and flow cytometry; assay type: cell-based, human; conditions: for G2 phase cell percentage: 72 h (control 18.00%); for S phase cell percentage: 72 h (control 22.95%); for G1 phase cell percentage: 72 h (control 59.05%)
Procedure: HepG2 cells were seeded into 6-well plates and incubated at 37 °C in a humidified 5% CO2 incubator for 24 h, and then treated with or without 6k at indicated concentrations for another 72 h. The collected cells were fixed by adding 70% ethanol at 4 °C for 12 h. Subsequently, the cells were resuspended in PBS containing 100 μL RNase A and 400 μL of PI for 30 min. The DNA content of the cells was measured using a FACS Calibur flow cytometer (BectoneDickinson, San Jose, CA, USA).

[5] = system: p-cdc25c, cdc2 and cyclin B1; experiment: Western blot of G2/M-related proteins; assay type: cell-based, human; conditions: HepG2, 72 h, concentration-dependent
Procedure: (§2) HepG2 cells were incubated with different doses of 6k for 72 h. Cells were collected, centrifuged, and washed two times with ice-cold PBS. The pellet was then re-suspended in lysis buffer. After the cells were lysed on ice for 20 min, lysates were centrifuged at 13000 g at 4 °C for 15 min. The protein concentration in the supernatant was determined using the BCA protein assay reagents. Equal amounts of protein (20 μg) were resolved using sodium dodecyl sulfate-polyacrylamide gel electrophoresis (SDS-PAGE) (10–12% acrylamide gels) and transferred to PVDF membrane. Membranes were blocked for 1 h at room temperature. Membranes were then incubated with primary antibodies against p-cdc25c, cdc2, cyclin B1, Bax, Bcl-2, cytochrome C, caspase-3, VDAC1 and β-actin, the membrane being gently rotated overnight at 4 °C. The bound antibodies were detected using horseradish peroxidase (HRP)-conjugated second antibodies and visualised by the enhanced chemiluminescent reagent.

[6] = system: Bax, Bcl-2, cytochrome C and caspase-3; experiment: Western blot of apoptosis-related proteins; assay type: cell-based, human; conditions: HepG2, 72 h, concentration-dependent
Procedure: as §2

[7] = LWP coefficient (log D) measurement, shake flask; assay type: physicochemical; conditions: pH 7.4
Procedure: Berberine, 3c and 6k of 1 mg were dissolved in three centrifugal tubes (5 ml) containing phosphate buffer (pH 7.4)-saturated 1-octanol solution (2 mL), followed by the addition of 1-octanol saturated PBS (2 mL). Each tube was vigorously mixed for 1 min and then shaken for 6 h at a speed of 1000 rpm at 37 °C. The mixtures were then centrifuged. 1 mL of 1-octanol phase and 1 mL of buffer were separately collected. Each phase was diluted to a suitable concentration and analysed by HPLC (Shimadzu DGU-20A3R) on a Shimadzu-GL WondaSil C18-WR column (λ = 254 nm) with an eluent of methanol/water (65/35, v/v, 1.0 ml/min). The log D value for each compound was calculated from the ratio of the peak areas using the following equation: Log D = log (Areaoct × x/Areabuf × y). x, y is the dilution factor.

[8] = Aqueous solubility measurement by HPLC; assay type: physicochemical; conditions: 25 °C, pH 7.4, aqueous buffer, thermodynamic from solid
Procedure: Berberine, 3c and 6k (5 mg) were dissolved in 1 ml PBS (50 mM, pH 7.4) at 25 °C. The suspension was sonicated for 30 min and then centrifuged at 15000 g for 5 min. The supernatant was filtered through a PTFE filter (0.2 μm) slowly. Then 10 μL filtered solution was injected into the HPLC system (Shimadzu DGU-20A3R) on a Shimadzu-GL WondaSil C18-WR column and quantified using the standard curves made by the corresponding known concentrations of berberine, 3c and 6k. The eluent was methanol/water (65/35, v/v) at a flow rate of 1.0 ml/min with the detection wavelength at 254 nm.

[9] = system: H22 liver cancer xenograft; experiment: In vivo anti-HCC assay, H22 liver cancer xenograft mouse model; design: species or system mice; conditions: intravenous; for tumour inhibitory rate (TIR, w/w): once a day for 21 days, H22 mice
Procedure: Five-week-old male Institute of Cancer Research (ICR) mice were purchased from Shanghai SLAC Laboratory Animals Co. Ltd. Briefly, a total of 1 × 10^6 H22 cells were subcutaneously inoculated into the right flank of ICR mice according to protocols of tumour transplant research, to initiate tumour growth. After incubation for one day, mice were weighed and randomly divided into 5 groups of 8 animals. The groups were administered berberine (30 mg/kg) and 6k (15 or 30 mg/kg) in a vehicle of 10% DMF/2% Tween 80/88% saline, respectively. Vehicle and cyclophosphamide (20 mg/kg) were employed as negative and positive controls, respectively. Treatments were performed by intravenous injection once per day for a total of 21 consecutive days. Body weights and tumour volumes were measured every 2 days. The mice were sacrificed after the treatments, and the tumours were excised and weighed. The tumour volume and inhibition rate (w/w) were calculated as follows: tumour volume = L × W^2/2, where L is the length and W is the width; tumour inhibitory ratio (%) = (1-average tumour weight of treated group/average tumour weight of control group) × 100%. All procedures were performed following institutional approval in accordance with the NIH Guide for the Care and Use of Laboratory Animals.

[10] = system: c-MYC G4 DNA (FPu18T); experiment: FRET-melting assay, FPu18T (c-MYC G4 DNA model); conditions: 2 μM compounds

CCCCCCCCc1c2[n+](cc3c(OCCCCCCCCN4CCN(C)CC4)c(OC)ccc13)CCc1cc3c(cc1-2)OCO3.[Br-] [Compound 6k, 10-Methoxy-9-((8–(4-methylpiperazin-1-yl)octyl)oxy)-13-octyl-5,6-dihydro-[1,3]dioxolo[4,5-g]isoquinolino[3,2-a]isoquinolin-7-ium bromide]
IC50 [1]: 1.69 ± 0.07 µM
IC50 [2]: 0.62 ± 0.04 µM
IC50 [3]: 7.68 ± 0.67 µM
Effect on cell cycle progression ([4]; HepG2, 0.25-1.0 μM, 72 h): cell cycle arrest at G2/M phase
G2 phase cell percentage ([4]; HepG2, 6k 0.25 μM): 23.56%
S phase cell percentage ([4]; HepG2, 6k 0.25 μM): 16.19%
G1 phase cell percentage ([4]; HepG2, 6k 0.25 μM): 60.24%
G2 phase cell percentage ([4]; HepG2, 6k 0.50 μM): 29.49%
S phase cell percentage ([4]; HepG2, 6k 0.50 μM): 22.68%
G1 phase cell percentage ([4]; HepG2, 6k 0.50 μM): 47.82%
G2 phase cell percentage ([4]; HepG2, 6k 1.0 μM): 32.16%
S phase cell percentage ([4]; HepG2, 6k 1.0 μM): 26.95%
G1 phase cell percentage ([4]; HepG2, 6k 1.0 μM): 40.88%
total cell percentages of G1 and S phases ([4]; HepG2, 6k 1.0 μM, 72 h (control 82.00%)): 67.83%
cdc2 [5]: inhibited cdc2 kinase activation
cdc25c phosphorylation (p-cdc25c) [5]: significantly promoted cdc25c phosphorylation
cyclin B1 [5]: reduced cyclin B1 binding
Bax expression [6]: upregulated Bax expression
Bcl-2 expression [6]: downregulated Bcl-2 expression
caspase-3 [6]: activated caspase-3
cytochrome C release [6]: promoted cytochrome C release
logD [7]: 3.87
solubility at 30 min [8]: 1080 µg/mL
tumour inhibitory rate (TIR, w/w) ([9]; 15 mg/kg): 50.4%
tumour inhibitory rate (TIR, w/w) ([9]; 30 mg/kg): 61.1%
mice body weights during treatment ([9]; 15 or 30 mg/kg, 21 days): didn’t cause significant loss in mice body weights
ΔTm(A) = Tm(FPu18T + compound) - Tm(FPu18T) [10]: 13.8 °C
